Laboratory results: PubChem BioAssay AID1259407 (Chemical Carcinogenesis Research Information System (CCRIS), 2018)
Calls of active or inactive are those of the source. No rule for the calls is given here.

Test system: CCRIS mutagenicity, Ames/micronucleus/aberration tests
Test: CCRIS mutagenicity studies

Measured: mutagenic call

CC(=O)Oc1ccccc1C(=O)O
inactive: Test System: AMES SALMONELLA TYPHIMURIUM, Strain/Indicator: TA100, Metabolic Activation: RAT, LIVER, S-9, AROCLOR 1254 (30%), Method: PREINCUBATION inactive; negative | Test System: AMES SALMONELLA TYPHIMURIUM, Strain/Indicator: TA100, Metabolic Activation: RAT, LIVER, S-9, AROCLOR 1254, Method: STANDARD PLATE inactive; negative | Test System: AMES SALMONELLA TYPHIMURIUM, Strain/Indicator: TA100, Metabolic Activation: RAT, LIVER, S-9, PCB, Method: PREINCUBATION inactive; negative | Test System: AMES SALMONELLA TYPHIMURIUM, Strain/Indicator: TA100, Metabolic Activation: RAT, LIVER, S-9, PCB, Method: STANDARD PLATE inactive; negative | Test System: AMES SALMONELLA TYPHIMURIUM, Strain/Indicator: TA1535, Metabolic Activation: HAMSTER, LIVER, S-9, AROCLOR 1254 (10%), Method: PREINCUBATION inactive; negative | Test System: AMES SALMONELLA TYPHIMURIUM, Strain/Indicator: TA1535, Metabolic Activation: HAMSTER, LIVER, S-9, AROCLOR 1254 (30%), Method: PREINCUBATION inactive; negative | Test System: AMES SALMONELLA TYPHIMURIUM, Strain/Indicator: TA1535, Metabolic Activation: HAMSTER, LIVER, S-9, AROCLOR 1254, Method: STANDARD PLATE inactive; negative | Test System: AMES SALMONELLA TYPHIMURIUM, Strain/Indicator: TA1535, Metabolic Activation: MOUSE, LIVER, S-9, AROCLOR 1254, Method: STANDARD PLATE inactive; negative | Test System: AMES SALMONELLA TYPHIMURIUM, Strain/Indicator: TA1535, Metabolic Activation: NONE, Method: PREINCUBATION inactive; negative | Test System: AMES SALMONELLA TYPHIMURIUM, Strain/Indicator: TA1535, Metabolic Activation: NONE, Method: STANDARD PLATE inactive; negative | Test System: AMES SALMONELLA TYPHIMURIUM, Strain/Indicator: TA1535, Metabolic Activation: RAT, LIVER, S-9, AROCLOR 1254 (10%), Method: PREINCUBATION inactive; negative | Test System: AMES SALMONELLA TYPHIMURIUM, Strain/Indicator: TA1535, Metabolic Activation: RAT, LIVER, S-9, AROCLOR 1254 (30%), Method: PREINCUBATION inactive; negative | Test System: AMES SALMONELLA TYPHIMURIUM, Strain/Indicator: TA1535, Metabolic Activation: RAT, LIVER, S-9, AROCLOR 1254, Method: STANDARD PLATE inactive; negative | Test System: AMES SALMONELLA TYPHIMURIUM, Strain/Indicator: TA1537, Metabolic Activation: HAMSTER, LIVER, S-9, AROCLOR 1254, Method: STANDARD PLATE inactive; negative | Test System: AMES SALMONELLA TYPHIMURIUM, Strain/Indicator: TA1537, Metabolic Activation: MOUSE, LIVER, S-9, AROCLOR 1254, Method: STANDARD PLATE inactive; negative | Test System: AMES SALMONELLA TYPHIMURIUM, Strain/Indicator: TA1537, Metabolic Activation: NONE, Method: STANDARD PLATE inactive; negative | Test System: AMES SALMONELLA TYPHIMURIUM, Strain/Indicator: TA1537, Metabolic Activation: RAT, LIVER, S-9, AROCLOR 1254, Method: STANDARD PLATE inactive; negative | Test System: AMES SALMONELLA TYPHIMURIUM, Strain/Indicator: TA1537, Metabolic Activation: RAT, LIVER, S-9, PCB, Method: STANDARD PLATE inactive; negative | Test System: AMES SALMONELLA TYPHIMURIUM, Strain/Indicator: TA1538, Metabolic Activation: HAMSTER, LIVER, S-9, AROCLOR 1254, Method: STANDARD PLATE inactive; negative | Test System: AMES SALMONELLA TYPHIMURIUM, Strain/Indicator: TA1538, Metabolic Activation: MOUSE, LIVER, S-9, AROCLOR 1254, Method: STANDARD PLATE inactive; negative | Test System: AMES SALMONELLA TYPHIMURIUM, Strain/Indicator: TA1538, Metabolic Activation: NONE, Method: STANDARD PLATE inactive; negative | Test System: AMES SALMONELLA TYPHIMURIUM, Strain/Indicator: TA1538, Metabolic Activation: RAT, LIVER, S-9, AROCLOR 1254, Method: STANDARD PLATE inactive; negative | Test System: AMES SALMONELLA TYPHIMURIUM, Strain/Indicator: TA1538, Metabolic Activation: RAT, LIVER, S-9, PCB, Method: STANDARD PLATE inactive; negative | Test System: E. COLI, Strain/Indicator: WP2 UVRA, Metabolic Activation: HAMSTER, LIVER, S-9, AROCLOR 1254, Method: STANDARD PLATE inactive; negative | Test System: E. COLI, Strain/Indicator: WP2 UVRA, Metabolic Activation: HAMSTER, LIVER, S-9, Method: STANDARD PLATE inactive; negative | Test System: E. COLI, Strain/Indicator: WP2 UVRA, Metabolic Activation: MOUSE, LIVER, S-9, AROCLOR 1254, Method: STANDARD PLATE inactive; negative | Test System: E. COLI, Strain/Indicator: WP2 UVRA, Metabolic Activation: MOUSE, LIVER, S-9, Method: STANDARD PLATE inactive; negative | Test System: E. COLI, Strain/Indicator: WP2 UVRA, Metabolic Activation: NONE, Method: STANDARD PLATE inactive; negative | Test System: E. COLI, Strain/Indicator: WP2 UVRA, Metabolic Activation: RAT, LIVER, S-9, AROCLOR 1254, Method: STANDARD PLATE inactive; negative | Test System: E. COLI, Strain/Indicator: WP2 UVRA, Metabolic Activation: RAT, LIVER, S-9, PCB, Method: STANDARD PLATE inactive; negative | Test System: E. COLI, Strain/Indicator: WP2 UVRA, Metabolic Activation: RAT, LIVER, S-9, Method: STANDARD PLATE inactive; negative
